{"source": "patent US12566184B2", "about": "“Cell-free biosensors to detect creatinine, creatine, and sarcosine” (Georgia Tech Research Corporation, priority 2021, dated 2026)", "test_system": "colored probe product", "experiment": "enzymatic creatinine assay with limited chemical probe (Amplex Red): stabilization of probe signal by antioxidants", "assay_type": "biochemical", "settings": "antioxidants added at different concentrations; chemical probe at low concentration", "from_the_text": "The existing assay is a purely enzymatic approach that translates the concentration of creatinine into a colorimetric change of varying intensity. It contains two enzymes. The first enzyme, creatininase, catalyzes the conversion of creatinine to creatine. The second enzyme, creatinase, catalyzes creatine to sarcosine. This bioconversion aspect of the assay can be maintained in both of the embodiments. In the existing assay, the sarcosine is then oxidized by sarcosine oxidase, generating hydrogen peroxide in the process. The fluorogenic peroxidase substrate Amplex Red, hereafter referred to as the “probe”, interacts with the generated hydrogen peroxide in the presence of horseradish peroxidase to produce the red-fluorescent product resorufin (see Yamkamon et al. Simultaneous determination of sarcosine and its related metabolites by gas chromatography-tandem mass spectrometry for prostate cancer diagnosis, EXCLI Journal, 2018). Resorufin accumulation leads to a visible color change with a linear response over physiological serum creatinine concentrations. However, there is significant day-to-day variability of unknown origin that affects the amplitude of the output, thus requiring (per manufacturer's instructions) a calibration curve to be run with every sample or batch of samples and complicating field deployment.\nIn certain embodiments of the disclosed invention, the existing assay can be taken in its entirety and titrated down the amount of probe (fluorogenic peroxidase substrate, Amplex Red) so as to produce a sample-specific calibration curve. The probe concentration that corresponds with specific creatinine concentrations in calibration tests can be first identified using defined chemical mixtures and then implemented in a serum sample matrix to validate the sample-specific calibration curve. […] This method yields a set of reactions to which patient sample can be added, and regardless of the sample levels of creatinine, the calibration spots will all correspond to defined levels of creatinine. The reaction with excess probe can then be visually compared to the calibration spots to determine the creatinine level. In particular, a shift from colorless to red may be useful for a presence-absence or binary diagnostic test. For more accurate monitoring of intensity of color, a plate reader (e.g., spectrophotometer or fluorescence reader) can be used.\nFurthermore, in order to reduce the patient-to-patient variability in readouts, also known as matrix effects, where the molecule being measured may appear to be at a different concentration only due to interferences from other constituents of the solution, the inventors identified that the appropriate reagent to limit was not the enzymes in the chemical assay, but rather the chemical probe. However, when the concentration of the chemical probe was reduced to a low level to enable the calibration approach, a side reaction happened where probe that has been transformed from colorless into colored form undergoes a second reaction that brings it back to a colorless form. This made the signal “decay” and thus would lead to an underreporting of the target molecule's concentration."}
{"molecule": "O=C(O)CC(O)(CC(=O)O)C(=O)O", "note": "[citric acid]", "values": [{"measurement": "effect on decay of probe signal (transformation of colored probe product into colorless side product)", "result": "preventing the decay of probe signal"}]}
{"molecule": "Cc1c(C)c2c(c(C)c1O)CCC(C)(C(=O)O)O2", "note": "(racemic) [(±)-6-Hydroxy-2,5,7,8-tetramethylchromane-2-carboxylic acid]", "values": [{"measurement": "effect on decay of probe signal (transformation of colored probe product into colorless side product)", "result": "preventing the decay of probe signal"}]}
{"molecule": "N[C@@H](CCC(=O)N[C@@H](CS)C(=O)NCC(=O)O)C(=O)O", "note": "[L-glutathione (reduced)]", "values": [{"measurement": "effect on decay of probe signal (transformation of colored probe product into colorless side product)", "result": "preventing the decay of probe signal"}]}
{"molecule": "O=c1[nH]c(=O)c2[nH]c(=O)[nH]c2[nH]1", "note": "[uric acid]", "values": [{"measurement": "effect on decay of probe signal (transformation of colored probe product into colorless side product)", "result": "preventing the decay of probe signal"}]}
{"molecule": "O=C1O[C@H]([C@@H](O)CO)C(O)=C1O", "note": "[Vitamin C]", "values": [{"measurement": "effect on decay of probe signal (transformation of colored probe product into colorless side product)", "result": "preventing the decay of probe signal"}]}
{"molecule": "Vitamin E", "values": [{"measurement": "effect on decay of probe signal (transformation of colored probe product into colorless side product)", "result": "preventing the decay of probe signal"}]}
